The subject of one assay is MM1.s cells. Kind of assay: In vivo efficacy in multiple myeloma xenograft model using MM1.s cells. More on the design: species or system mouse. The conditions noted are these: mice, oral 25 to 90 mg/kg. On the procedure: MM1.s cells (ATCC) were grown under standard cell culture conditions and SCID-Beige strain of female mice age 6-7 weeks were injected with 10×10^6 cells/animal in 100 μL PBS+100 μL Matrigel in the lower left abdominal flank. By approximately day 21 after MM1.s cells injection, mice were randomized based on tumor volume (L×W×H)/2) of average 120 mm^3. Mice were dosed orally with compound at 25 to 90 mg/kg b.i.d and or q.d in EA006 formulation at 10 mL/kg body weight dose volume. Tumor measurements were taken with electronic micro calipers and body weights measured on alternate days beginning from dosing period. The average tumor volumes, percent Tumor Growth Inhibition (TGI) and % change in body weights were compared relative to Vehicle control animals. The means, statistical analysis and the comparison between groups were calculated using Student's t-test in Excel.

Assay [1] in a line: In vivo efficacy in experimental autoimmune encephalomyelitis (EAE) model of MS. Also on record: species or system mouse. The settings on record: female C57Bl/6 mice, 50 to 125 mg/kg b.i.d. From the text: Experimental autoimmune encephalomyelitis (EAE) is a T-cell-mediated autoimmune disease of the CNS which shares many clinical and histopathological features with human multiple sclerosis (MS). EAE is the most commonly used animal model of MS. […] Cytokines IL-23, IL-6 and IL-17, which are either critical for Th1 and Th17 differentiation or produced by these T cells, play a critical and non-redundant role in EAE development. Therefore, drugs targeting production of these cytokines are likely to have therapeutic potential in treatment of MS.
Compounds of Formula I were administered at 50 to 125 mg/kg b.i.d. from time of immunization to EAE mice to assess anti-inflammatory activity. In this model, EAE is induced by MOG35-55/CFA immunization and pertussis toxin injection in female C57Bl/6 mice.

The next assay concerns hIL-17 mRNA. Nature of the assay: Inhibition of hIL-17 mRNA transcription in OKT3-stimulated peripheral blood mononuclear cells. It counts as cell-based. The settings on record: human PBMC, OKT3 stimulation 6 h, read-out: IL-17 Activity. The procedure, abridged:
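Human PBMCs in IL-2 (20 ng/ml) medium preincubated 1 h with compound or 0.1% DMSO, then OKT3-stimulated for 6 h at 37 °C. hIL-17 mRNA quantified by one-step TaqMan qRT-PCR, normalized to an internal control, as fold induction relative to control.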

Assay [2] deals with Bcl2 and c-myc gene expression. Kind of assay: Evaluation of target engagement: Bcl2 and c-myc gene expression in MV4-11 and MM1.s xenograft tumors. It counts as in vivo, mouse. The settings on record: oral dose, tumors harvested 3, 6, 12, 24 hrs post dose for Bcl2 and c-myc gene expression as PD biomarkers. On the procedure:
MV4-11 and MM1.s cells (ATCC) are grown under standard cell culture conditions and (NCr) nu/nu fisol strain of female mice age 6-7 weeks are injected with 5×10^6 cells/animal in 100 μL PBS+100 μL Matrigel in the lower left abdominal flank. By approximately day 28 after MV4-11 and MM1.s cells injection, mice are randomized based on tumor volume (L×W×H)/2) of average ˜500 mm^3. Mice are dosed orally with compound in EA006 formulation at 10 mL/kg body weight dose volume and tumors harvested 3, 6, 12, 24 hrs post dose for Bcl2 and c-myc gene expression analysis as PD biomarkers.

A short description of assay [3]: In vivo efficacy in rat collagen-induced arthritis. The conditions noted are these: female Lewis rats, dosed Day 11 to Day 17. Here is the method:
Rat collagen-induced arthritis is an experimental model of polyarthritis that has been widely used for preclinical testing of numerous anti-arthritic agents. Following administration of collagen, this model establishes a measurable polyarticular inflammation, marked cartilage destruction in association with pannus formation and mild to moderate bone resorption and periosteal bone proliferation. In this model, collagen was administered to female Lewis strain of rats on Day 1 and 7 of study and dosed with compounds from Day 11 to Day 17. Test compounds were administered at 25 mg/kg to 120 mg/kg b.i.d and 7.5 mg/kg to 30 mg/kg q.d dose to assess the potential to inhibit the inflammation (including paw swelling), cartilage destruction and bone resorption in arthritic rats, using a model in which the treatment is administered after the disease has been established.

Assay [4] concerns TH1, Th2 and Th17 cytokines. Kind of assay: Ex vivo effects on T cell function from splenocyte and lymphocyte cultures stimulated with external MOG. It counts as in vivo, mouse. The settings on record: MOG stimulation 72 hours, mice treated 11 days b.i.d. Here is the method:
Mice were immunized with MOG/CFA and simultaneously treated with the compound for 11 days on a b.i.d regimen. Inguinal Lymph node and spleen were harvested, cultures were set up for lymphocytes and splenocytes and stimulated with external antigen (MOG) for 72 hours. Supernatants from these cultures were analyzed for TH1, Th2 and Th17 cytokines using a Cytometric Bead Array assay.

The subject of a further assay is MV4-11 cells. Nature of the assay: In vivo efficacy in athymic nude mouse acute myeloid leukemia xenograft model using MV4-11 cells. The settings on record: athymic nude mouse AML xenograft (MV4-11), oral dosing. Here is the method:
MV4-11 cells (ATCC) were grown under standard cell culture conditions and (NCr) nu/nu fisol strain of female mice age 6-7 weeks were injected with 5×10^6 cells/animal in 100 μL PBS+100 μL Matrigel in the lower left abdominal flank. By approximately day 18-21 after MV4-11 cells injection, mice were randomized based on tumor volume (L×W×H)/2) of average ˜100-300 mm^3. Mice were dosed orally with compound at 5 to 120 mg/kg b.i.d and/or q.d. on a continuous dosing schedule and at 2.5 to 85 mg/kg q.d. on a 5 day on 2 day off, 100 mg/kg q.d. on a 4 day on and 3 day off, 135 mg/kg q.d. on a 3 day on and 4 day off, 180 mg/kg on a 2 day on and 5 day off and 240 mg/kg on a 1 day on and 6 days off dosing schedules in EA006 formulation at 10 mL/kg body weight dose volume. Tumor measurements were taken with electronic micro calipers and body weights measured on alternate days beginning from dosing period. The average tumor volumes, percent Tumor Growth Inhibition (TGI) and % change in body weights were compared relative to Vehicle control animals. The means, statistical analysis and the comparison between groups were calculated using Student's t-test in Excel.

Molecules are shown by their SMILES. Bounds are passed on as bounds.

As for `Cc1noc(C)c1-c1cc(-c2c(C)noc2C)c2nc[nH]c2c1` [Example Compound 1, 4,4′-(1H-benzo[d]imidazole-4,6-diyl)bis(3,5-dimethylisoxazole)], the In vivo activity result (with MM1.s cells; in assay [1]; in assay [2]; in assay [3]; in assay [4]; in the assay with MV4-11 cells) was “Active” in each case. For the same molecule, in the assay with hIL-17 mRNA, the IC50 fell in the range of 300 to 3000 nM.

With `Cc1nc2c(-c3c(C)noc3C)cc(-c3c(C)noc3C)cc2[nH]1` [Example Compound 6, 4,4′-(2-methyl-1H-benzo[d]imidazole-4,6-diyl)bis(3,5-dimethylisoxazole)], the In vivo activity entry (with MM1.s cells; in assay [1]; in assay [4]; in the assay with MV4-11 cells) was “Active” in each case. Besides, the IC50 in the assay with hIL-17 mRNA is no more than 300 nM.

Regarding `Cc1nc2c(-c3cccnc3C)cc(-c3c(C)noc3C)cc2[nH]1` [Example Compound 41, 3,5-dimethyl-4-(2-methyl-4-(2-methylpyridin-3-yl)-1H-benzo[d]imidazol-6-yl)isoxazole], the In vivo activity result (in the assay with MM1.s cells; in assay [3]; in the assay with MV4-11 cells) was “Active” throughout. Moreover, in the assay with hIL-17 mRNA, the IC50 is 300 to 3000 nM.

As for `Cc1nc2c(-c3c(C)nn(C)c3C)cc(-c3c(C)noc3C)cc2[nH]1` [Example Compound 49, 3,5-dimethyl-4-(2-methyl-4-(1,3,5-trimethyl-1H-pyrazol-4-yl)-1H-benzo[d]imidazol-6-yl)isoxazole], in the assay with hIL-17 mRNA, the IC50 is no more than 300 nM. Besides, the In vivo activity entry in the assay with MV4-11 cells is on record as “Active”.
